From patent US4387087A, “Cationic lipophilic complexes of ^99m Tc and their use for myocardial and hepatobiliary imaging” (priority 1980, dated 1983) come the findings set out here.

What all share (assay type): in vivo
Data set [1] can be described thus: Myocardial imaging in a normal mongrel dog (Examples 4 and 5). The protocol:
For example, time dependent scintiscans of the chest region of a patient can be used. A computer interface, 16 crystal, Ohio Nuclear Spectrometer, is used for these scans and about 5 mCi of a given radiopharmaceutical is injected; blood samples are concurrently collected via an indwelling intravenous catheter in order to determine blood clearance rates. Time dependent tissue distribution studies are then conducted.

Data set [2] can be described thus: Tissue distribution studies using normal female Sprague-Dawley rats (Table 1).
A short description of data set [3]: Hepatobiliary imaging in a mongrel dog (Example 6, FIGS. 1 and 2). The method, then: FIG. 2 is a schematic describing the photograph of FIG. 1. Both the photograph and accompanying schematic were taken after the complex had cleared the blood (5 minutes after injection), entered the liver and started clearing the liver and entering the gallbladder (10 minutes after injection).
The title complex was injected in the same vehicle as in Example 4 into a mongrel dog and images were obtained by positioning a camera directly over the chest of the dog.

The nature of data set [4]: Blood clearance curves (Example 7, FIG. 4). Particulars: dog. The text has this: It is clear that these two chemically similar agents are somewhat differentiated in the biological system.
Imaging of the myocardium or the hepatobiliary system can then be carried out (after waiting for appropriate periods of time to permit blood clearance of the radiopharmaceutical), by standard scanning techniques (Andres, J. T. et al., "Nuclear Medicine", Wiley & Sons, N.Y., 1977; "Basic Science Principles of Nuclear Medicine", Boyd, C. M. and Dalrymple, G. V., eds., Morby, St. Louis, 1974). For example, time dependent scintiscans of the chest region of a patient can be used. A computer interface, 16 crystal, Ohio Nuclear Spectrometer, is used for these scans and about 5 mCi of a given radiopharmaceutical is injected; blood samples are concurrently collected via an indwelling intravenous catheter in order to determine blood clearance rates. Time dependent tissue distribution studies are then conducted.
(§1) The two title complexes were injected into a dog as described for the complex of Example 4. […] These differences are graphically illustrated in FIG. 3, wherein are plotted time dependent myocardial and gallbladder distributions obtained by computer analysis of scintigraphic data; data for a given complex are normalized, but comparative data between complexes are not.

A short description of data set [5]: Time dependent myocardial and gallbladder distributions, computer analysis of scintigraphic data (Example 7, FIG. 3). The conditions noted are these: dog. The protocol: FIG. 3 compares the gallbladder uptake and heart clearing of 99m-Tc (diars)2 Cl2^+ with that of 99m-Tc (diars)2 Br2^+.
as §1

Values joined by “and” are separate entries in the source; they are usually repeats but may differ in a detail not shown here. Identical values can stand only once.

Take `C[P+]1(C)CC[P+](C)(C)[99Tc-3]12([Br])([Br])[P+](C)(C)CC[P+]2(C)C` [[99m-Tc(DMPE)2 Br2]^+, [99m-Tc(DMPE)2 Br2]Br]: the “Myocardial uptake by the heart” value in data set [1] (same conditions as Example 4) was “Myocardial uptake by the heart of a normal mongrel dog was observed”.
As for “trans-[Tc-99m(diars)2 Br2 ]Br [trans-[Tc(diars)2 Br2]Br]”, in data set [2] (10 min post dose), the Blood is 0.38(3) % of the dose/g, the “Femur Muscle” value is reported as 0.22(6) % of the dose/g, the Kidney was 3.1(6) % of the dose/g and the Liver is listed as 4.5(6) % of the dose/g. The Pancreas in data set [2] (10 min post dose) is given as 1.0(3) % of the dose/g. Also, in data set [2] (10 min post dose, 10 min), the Heart is 2.3(5) % of the dose/g and 2.3 % of the dose/g. Further, in data set [2] (30 min post dose), the Blood was 0.27(3) % of the dose/g, the “Femur Muscle” value is recorded as 0.29(3) % of the dose/g, the Heart is reported as 1.8(1) % of the dose/g and the Kidney is recorded as 2.3(1) % of the dose/g. For the same compound, in data set [2] (30 min post dose), the Liver is 2.9(6) % of the dose/g and the Pancreas is recorded as 1.2(2) % of the dose/g. In data set [2] (60 min post dose), the Blood is given as 0.21(1) % of the dose/g, the “Femur Muscle” value is recorded as 0.26(5) % of the dose/g, the Heart was 1.3(1) % of the dose/g and the Kidney is reported as 2.1(1) % of the dose/g. For the same compound, in data set [2] (60 min post dose), the Liver is 2.7(3) % of the dose/g and the Pancreas is on record as 0.9(1) % of the dose/g. Also, in data set [2] (120 min post dose), the Blood is reported as 0.18(3) % of the dose/g, the “Femur Muscle” value is 0.28(2) % of the dose/g, the Heart is given as 1.0(1) % of the dose/g and the Kidney is 1.9(1) % of the dose/g. Besides, in data set [2] (120 min post dose), the Liver was 2.1(2) % of the dose/g and the Pancreas is given as 0.8(1) % of the dose/g. Moreover, the “complex in the blood pool” value in data set [3] (0 minutes, immediately after injection) is “most of the complex is in the blood pool which is predominantly in the heart chambers”. Also, in data set [3] (1 minute after injection), the “clearance from the blood” value is listed as “begins to clear from the blood”, the gallbladder uptake result was “The gallbladder does not yet contain any activity” and the liver uptake entry is reported as “starts to enter the liver”. Further, in data set [3] (5 minutes), the “clearance from the blood” value was “The complex is all gone from the blood”, the gallbladder uptake entry is given as “A small amount has begun to enter the gallbladder”, the heart image result was “the heart image has disappeared” and the liver uptake result is “most of it is in the liver”. In data set [3] (10 minutes), the gallbladder uptake result was “The gallbladder has taken up most of the complex and appears brighter than even the liver”. For the same compound, in data set [3] (20 minutes), the gallbladder uptake entry was “The gallbladder has taken up the bulk of the complex” and the liver activity entry is listed as “the liver contains relatively little activity”. Also, in data set [3] (30 minutes, FIGS. 1 and 2), the gallbladder uptake entry was “the gallbladder has taken up the bulk of the complex” and the liver activity entry is “the liver contains relatively little activity”. In addition, in data set [3] (FIGS. 1 and 2), the “time after injection at which the complex had cleared the blood” value amounted to 5 min; the “time after injection at which the complex started clearing the liver and entering the gallbladder” value was 10 min. For the same compound, the “Blood clearance curves, comparison of the two complexes” value in data set [4] is “biologically differentiated”. Moreover, the “gallbladder handling of the two agents” value in data set [5] (FIG. 3) is recorded as “the gallbladder handles these two agents differently”. Besides, in data set [5] (intravenous), the “gallbladder uptake (rate)” value is on record as “relatively slow” and the “time post intravenous injection at which the myocardium is readily visualized” value is 20 to 40 min. Moreover, the “removal of the bulk of the activity” value in data set [1] is “The bulk of the activity is taken out by the hepatobiliary system”. Further, in data set [1] (50% ethanol/50% saline vehicle), the “maximal myocardial uptake, time post injection” value was “about 20 minutes”. The “visualization of the myocardium” value in data set [1] (high sensitivity colimator) is “clearly visualizing the myocardium”.
